{"source": "ChEMBL document CHEMBL5678818", "about": "“Discovery of potent SOS1 inhibitors that block RAS activation via disruption of the RAS-SOS1 interaction” (Proc Natl Acad Sci U S A, 2019)", "key": {"[1]": {"target": "T1, Tyrosine-protein kinase JAK3 (Homo sapiens) (UniProt P52333)", "T1 sequence (whole entry)": "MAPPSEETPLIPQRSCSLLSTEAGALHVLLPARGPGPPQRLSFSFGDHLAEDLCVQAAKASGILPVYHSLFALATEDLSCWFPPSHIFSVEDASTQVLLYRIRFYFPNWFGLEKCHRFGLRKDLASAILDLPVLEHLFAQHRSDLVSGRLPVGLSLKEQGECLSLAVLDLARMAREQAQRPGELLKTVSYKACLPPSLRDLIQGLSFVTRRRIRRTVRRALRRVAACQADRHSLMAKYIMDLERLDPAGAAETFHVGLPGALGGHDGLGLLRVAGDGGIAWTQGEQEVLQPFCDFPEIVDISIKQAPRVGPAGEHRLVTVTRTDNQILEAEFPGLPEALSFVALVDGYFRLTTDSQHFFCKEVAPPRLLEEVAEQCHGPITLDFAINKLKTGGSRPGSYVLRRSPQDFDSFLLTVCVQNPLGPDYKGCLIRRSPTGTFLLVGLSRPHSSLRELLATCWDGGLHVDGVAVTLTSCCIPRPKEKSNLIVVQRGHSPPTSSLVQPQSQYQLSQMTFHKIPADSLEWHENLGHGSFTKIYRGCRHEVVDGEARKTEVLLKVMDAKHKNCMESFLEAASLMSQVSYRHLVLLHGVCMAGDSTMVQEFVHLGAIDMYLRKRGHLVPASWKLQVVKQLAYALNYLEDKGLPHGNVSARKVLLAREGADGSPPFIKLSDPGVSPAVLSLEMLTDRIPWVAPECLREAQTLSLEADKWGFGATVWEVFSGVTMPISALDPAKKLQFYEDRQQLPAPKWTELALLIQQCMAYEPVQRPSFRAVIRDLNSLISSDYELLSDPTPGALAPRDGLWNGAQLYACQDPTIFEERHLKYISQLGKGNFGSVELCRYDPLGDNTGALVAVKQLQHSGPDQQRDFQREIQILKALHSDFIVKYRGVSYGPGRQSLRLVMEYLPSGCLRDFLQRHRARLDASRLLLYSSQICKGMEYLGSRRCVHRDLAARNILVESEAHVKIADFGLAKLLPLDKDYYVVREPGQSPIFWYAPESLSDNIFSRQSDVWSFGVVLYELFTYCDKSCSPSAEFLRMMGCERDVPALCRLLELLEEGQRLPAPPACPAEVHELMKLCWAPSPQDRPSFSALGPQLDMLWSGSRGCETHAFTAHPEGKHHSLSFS", "assay": "Inhibition of JAK3 JH1 catalytic domain (unknown origin) assessed as residual activity at 1000 nM by KINOMEscan analysis relative to control"}, "[2]": {"tested_on": "Phosphatidylinositol 4,5-bisphosphate 3-kinase catalytic subunit alpha isoform (Homo sapiens), P42336 [C420R]", "sequence (P42336 whole entry C420R, canonical isoform)": "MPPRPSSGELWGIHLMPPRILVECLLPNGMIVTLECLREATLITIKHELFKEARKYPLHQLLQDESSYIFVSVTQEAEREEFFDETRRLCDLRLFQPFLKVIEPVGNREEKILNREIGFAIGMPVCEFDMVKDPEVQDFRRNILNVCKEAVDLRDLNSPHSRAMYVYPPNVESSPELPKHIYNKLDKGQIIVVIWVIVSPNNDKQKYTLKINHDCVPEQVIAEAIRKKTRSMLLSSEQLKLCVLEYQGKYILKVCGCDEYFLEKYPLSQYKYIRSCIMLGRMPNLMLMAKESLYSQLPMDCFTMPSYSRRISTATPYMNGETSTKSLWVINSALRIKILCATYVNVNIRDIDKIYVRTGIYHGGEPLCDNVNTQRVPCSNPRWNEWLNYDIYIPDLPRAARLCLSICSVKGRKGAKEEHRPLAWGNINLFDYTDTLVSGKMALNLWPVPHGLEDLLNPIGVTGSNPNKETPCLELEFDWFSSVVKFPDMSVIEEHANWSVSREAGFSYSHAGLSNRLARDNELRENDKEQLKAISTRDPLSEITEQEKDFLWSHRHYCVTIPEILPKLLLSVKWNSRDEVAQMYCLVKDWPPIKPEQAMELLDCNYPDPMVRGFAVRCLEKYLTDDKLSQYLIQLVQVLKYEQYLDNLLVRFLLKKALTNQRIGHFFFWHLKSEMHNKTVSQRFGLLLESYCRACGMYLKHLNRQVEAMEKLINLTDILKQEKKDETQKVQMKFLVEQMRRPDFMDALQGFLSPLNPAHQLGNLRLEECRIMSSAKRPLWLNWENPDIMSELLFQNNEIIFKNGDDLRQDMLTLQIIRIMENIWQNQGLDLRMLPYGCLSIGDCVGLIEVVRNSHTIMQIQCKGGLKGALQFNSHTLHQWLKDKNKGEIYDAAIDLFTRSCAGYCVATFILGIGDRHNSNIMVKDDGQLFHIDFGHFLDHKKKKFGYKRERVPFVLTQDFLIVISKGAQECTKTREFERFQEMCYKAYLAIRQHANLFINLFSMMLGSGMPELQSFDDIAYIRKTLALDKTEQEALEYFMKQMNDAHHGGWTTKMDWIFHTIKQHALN", "assay": "Inhibition of PIK3CA C420R mutant (unknown origin) assessed as residual activity at 1000 nM by KINOMEscan analysis relative to control"}, "[3]": {"target": "T2, Casein kinase I isoform alpha-like (Homo sapiens) (UniProt Q8N752)", "T2 sequence (whole entry)": "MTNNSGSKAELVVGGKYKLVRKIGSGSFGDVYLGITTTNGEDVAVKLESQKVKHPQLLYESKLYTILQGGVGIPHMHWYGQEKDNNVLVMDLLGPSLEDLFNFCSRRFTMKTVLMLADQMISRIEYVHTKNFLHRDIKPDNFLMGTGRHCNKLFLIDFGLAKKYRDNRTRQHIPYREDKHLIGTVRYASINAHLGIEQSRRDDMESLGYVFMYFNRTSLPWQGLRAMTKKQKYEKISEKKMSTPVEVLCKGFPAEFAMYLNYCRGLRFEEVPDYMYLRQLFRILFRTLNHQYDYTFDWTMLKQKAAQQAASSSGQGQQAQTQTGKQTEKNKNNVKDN", "assay": "Inhibition of CSNK1A1L (unknown origin) assessed as residual activity at 1000 nM by KINOMEscan analysis relative to control"}, "[4]": {"target": "Receptor tyrosine-protein kinase erbB-2 (Homo sapiens) (UniProt P04626)", "sequence (P04626 whole entry)": "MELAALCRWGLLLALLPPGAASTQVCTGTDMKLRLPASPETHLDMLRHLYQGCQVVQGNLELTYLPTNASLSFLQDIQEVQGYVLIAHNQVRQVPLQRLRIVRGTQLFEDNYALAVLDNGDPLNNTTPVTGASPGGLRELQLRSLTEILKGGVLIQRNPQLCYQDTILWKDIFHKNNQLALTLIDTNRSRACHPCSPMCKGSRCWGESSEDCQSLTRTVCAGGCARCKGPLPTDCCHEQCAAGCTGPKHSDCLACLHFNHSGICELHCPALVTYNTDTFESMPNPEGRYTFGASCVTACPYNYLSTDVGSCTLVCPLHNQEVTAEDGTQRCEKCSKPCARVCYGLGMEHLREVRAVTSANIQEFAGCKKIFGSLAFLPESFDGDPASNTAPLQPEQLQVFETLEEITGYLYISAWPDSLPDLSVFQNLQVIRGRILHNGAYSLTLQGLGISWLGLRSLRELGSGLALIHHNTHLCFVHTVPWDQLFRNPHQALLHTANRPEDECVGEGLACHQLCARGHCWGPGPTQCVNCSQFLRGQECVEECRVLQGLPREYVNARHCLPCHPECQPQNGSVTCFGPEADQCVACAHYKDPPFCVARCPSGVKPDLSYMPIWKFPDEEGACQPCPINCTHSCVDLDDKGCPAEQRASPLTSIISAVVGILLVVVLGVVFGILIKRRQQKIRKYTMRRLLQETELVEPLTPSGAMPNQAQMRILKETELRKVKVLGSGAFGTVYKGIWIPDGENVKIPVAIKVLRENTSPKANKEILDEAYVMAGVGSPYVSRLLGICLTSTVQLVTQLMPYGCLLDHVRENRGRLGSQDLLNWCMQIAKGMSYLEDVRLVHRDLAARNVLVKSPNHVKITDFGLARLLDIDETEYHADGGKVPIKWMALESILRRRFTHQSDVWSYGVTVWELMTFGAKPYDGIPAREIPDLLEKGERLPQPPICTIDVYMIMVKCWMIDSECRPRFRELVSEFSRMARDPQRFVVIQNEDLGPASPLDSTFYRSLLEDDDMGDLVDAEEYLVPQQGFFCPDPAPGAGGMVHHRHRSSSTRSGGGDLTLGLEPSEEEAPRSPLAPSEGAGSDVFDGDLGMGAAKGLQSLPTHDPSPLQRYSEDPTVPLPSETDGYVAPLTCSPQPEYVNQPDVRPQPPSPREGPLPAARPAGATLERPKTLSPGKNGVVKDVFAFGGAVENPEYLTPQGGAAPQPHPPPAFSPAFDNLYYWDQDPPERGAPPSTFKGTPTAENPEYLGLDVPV", "assay": "Inhibition of ERBB2 (unknown origin) assessed as residual activity at 1000 nM by KINOMEscan analysis relative to control"}, "[5]": {"target": "T3, Inhibitor of nuclear factor kappa-B kinase subunit epsilon (Homo sapiens) (UniProt Q14164)", "T3 sequence (whole entry)": "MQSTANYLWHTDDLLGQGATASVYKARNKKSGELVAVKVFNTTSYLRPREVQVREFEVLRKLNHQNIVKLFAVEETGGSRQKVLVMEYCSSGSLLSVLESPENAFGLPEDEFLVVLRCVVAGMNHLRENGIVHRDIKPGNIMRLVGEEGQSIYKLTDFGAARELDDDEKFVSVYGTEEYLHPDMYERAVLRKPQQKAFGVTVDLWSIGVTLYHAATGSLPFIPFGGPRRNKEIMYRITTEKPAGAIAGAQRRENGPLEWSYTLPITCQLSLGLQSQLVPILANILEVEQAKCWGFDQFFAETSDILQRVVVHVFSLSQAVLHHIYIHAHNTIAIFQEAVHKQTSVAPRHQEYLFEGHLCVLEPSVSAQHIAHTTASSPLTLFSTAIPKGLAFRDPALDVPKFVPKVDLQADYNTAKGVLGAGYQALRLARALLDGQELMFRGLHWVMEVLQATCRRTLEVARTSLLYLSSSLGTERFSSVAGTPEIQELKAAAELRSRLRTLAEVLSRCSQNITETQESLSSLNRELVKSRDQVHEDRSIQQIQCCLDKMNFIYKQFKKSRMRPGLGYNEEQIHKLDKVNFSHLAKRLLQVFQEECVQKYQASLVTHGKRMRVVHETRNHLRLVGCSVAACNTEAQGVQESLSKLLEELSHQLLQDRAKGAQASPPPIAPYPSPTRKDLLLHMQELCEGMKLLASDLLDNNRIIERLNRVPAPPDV", "assay": "Inhibition of IKK-epsilon (unknown origin) assessed as residual activity at 1000 nM by KINOMEscan analysis relative to control"}}, "data": [{"smiles": "COc1cc2nc(C)nc(N[C@H](C)c3cccc(-c4cn[nH]c4)c3)c2cc1OC", "values": [{"measurement": "Activity", "setting": "[1]", "result": 100, "unit": "%"}, {"measurement": "Activity", "setting": "[2]", "result": 82, "unit": "%"}, {"measurement": "Activity", "setting": "[3]", "result": 65, "unit": "%"}, {"measurement": "Activity", "setting": "[4]", "result": 76, "unit": "%"}, {"measurement": "Activity", "setting": "[5]", "result": 88, "unit": "%"}]}, {"smiles": "COc1cc2ncnc(N[C@H](C)c3cccc4ccccc34)c2cc1OC", "values": [{"measurement": "Activity", "setting": "[1]", "result": 81, "unit": "%"}, {"measurement": "Activity", "setting": "[2]", "result": 82, "unit": "%"}, {"measurement": "Activity", "setting": "[3]", "result": 100, "unit": "%"}, {"measurement": "Activity", "setting": "[4]", "result": 26, "unit": "%"}, {"measurement": "Activity", "setting": "[5]", "result": 98, "unit": "%"}]}]}
